Data from patent publication US20190151294A1, “TREATMENT OF ALCOHOLISM AND DEPRESSION AND/OR DYSPHORIC MOOD USING IBUDILAST” (MEDICINOVA, INC., priority 2016, published 2019).

How the values were obtained:
[1] = test system: alcohol-preferring (P) rats; test: Voluntary ethanol consumption in alcohol-preferring (P) rats; format: in vivo, rat; settings: for dose dependence of effect on ethanol intake (2-way mixed ANOVA): p<0.001
Experimental: To perform the study, adult male P and HAD1 rats were randomly assigned to receive one of the following four doses of ibudilast—0 mg/Kg, 3 mg/Kg, 6 mg/Kg, or 9 mg/Kg with eight rats assigned to each dose. Each dosing group was balanced to average a 2 h/day ethanol (15% v/v) intake. Water was concurrently available to the rats and Mazola corn oil was used as the vehicle.
The study was divided into four test phases. In the maintenance test phase rats in the treatment group were injected ibudilast subcutaneously (2 mL/kg s.c.), using standard solutions that deliver 3 mg/Kg, 6 mg/Kg or 9 mg/Kg of ibudilast, 60 min before each ethanol test session and the same dose of ibudilast was administered subcutaneously to the rats 8 hours later. Rats in the control group, however, are administered 2 mL/Kg Mazola corn oil subcutaneously. This protocol was carried out for 4 consecutive days. Following the maintenance test phase, is a two week no drug recovery phase during which rats are permitted access to ethanol and the amount of ethanol consumed by the rats was measured.
The recovery phase is followed by a two week forced ethanol abstinence phase. Following forced abstinence, the effects of ibudilast on ethanol drinking were examined by re-introducing ethanol to rats for a period of 5 consecutive days (i.e., the Relapse Test phase). Each animal received the same dose of ibudilast during maintenance and relapse test phases.

[2] = test system: non-treatment-seeking individuals with AUD; test: Phase 1b study: safety and tolerability; format: in vivo, human
Experimental: A Phase 1b laboratory study was conducted to determine the safety, tolerability, and initial efficacy of ibudilast (50 mg BID) in humans as a potential AUD therapeutic agent.
To address each of the above mentioned specific aims, a randomized, crossover, double-blind, placebo-controlled study was conducted to determine the safety, tolerability, and efficacy of ibudilast in individuals with current AUD. Participants were between the ages of 21 and 65 years; met the DSM-5 diagnostic criteria for AUD; reported drinking at least 48 standard drinks in a 30-day period, during the 90 days before enrollment; and were non-treatment seeking alcohol dependent individuals who consented to an inpatient stay at a medical facility for part of the study.
(§1) Twenty four non-treatment-seeking individuals with AUD were treated with ibudilast (50 mg BID) and placebo (PBO). Participants completed two alcohol IV challenges, one after taking IBUD for 6 days and one after taking matched PBO for 6 days with a 5-10 day washout period between the study drug conditions. Ibudilast was obtained in the form of capsules containing a delayed-release 10 mg formulation. Matching capsules of the placebo also were obtained. Each participant visited the Clinical and Translational Research Center (CTRC) during on Days 1-5 of each medication condition during which they came in for daily morning visits with the study nurse to take the morning study medication under direct observation and took home the evening study medication. The participants stayed overnight on Day 6 and were discharged on Day 7. During the daily visits to the CTRC, the study nurse collected vital signs, asked about side effects in an open-ended fashion and used the Systematic Assessment for Treatment Emergent Events (SAFTEE).
(§2) The study comprised a treatment group and a placebo group and each participant completed a daily assessment questionnaire to address changes in mood, withdrawal effects, alcohol cravings, and address issues pertaining to other side effects. Thus, non-treatment seeking alcohol dependent individuals were treated with ibudilast 50 mg (5×10 mg capsules) twice daily (BID) or placebo (PBO). […] Following the intravenous alcohol challenge, participants were monitored for 24 hours and then discharged. Following a 5-10 day washout period study participants were readmitted to the CTRC where they received the opposite treatment (IBUD or PBO) for the second part of the study.
Breath alcohol content (BrAC) was monitored every 3 to 5 minutes during infusion until target BrAC's of 0.02 g·dl, 0.04 g·dl, 0.06 g·dl, and 0.08 g·dl were obtained, following which infusion rates were reduced to half the original rate to maintain stable BrAC levels during the testing phase. The following parameters were assessed prior to intravenous alcohol challenge and again at each target BrAC: (1) Biphasic Alcohol Effects Scale (BAES) to obtain a reliable and valid measure of alcohol's stimulant and sedative effects; (2) Alcohol Urge Questionnaire (AUQ)—an 8-item scale where subjects rate their craving for alcohol at the present moment, which is appropriate for examining the level of the urge to drink alcohol; (3) Alcohol Ratings Scale, which captures “liking” and “wanting” of alcohol”; (4) The Profile of Mood States (POMS; McNair 1971) which was used to record positive and negative mood states; and (5) Heart Rate and Blood Pressure levels measure at baseline and at each target level of BrAC.

[3] = test system: non-treatment-seeking individuals with AUD; test: Phase 1b study: daily alcohol craving (AUQ); format: in vivo, human; settings: 50 mg BID; over the course of the study; p<0.05; FIG. 4
Experimental: as §1, with “During the daily visits to the CTRC, the study nurse collected vital signs, asked about side effects in an open-ended fashion and used the Systematic Assessment for Treatment Emergent Events (SAFTEE).” left out
as §2, with “effects.” for “effects. Thus, non-treatment seeking alcohol dependent individuals were treated with ibudilast 50 mg (5×10 mg capsules) twice daily (BID) or placebo (PBO).”

[4] = test system: non-treatment-seeking individuals with AUD; test: Phase 1b study: cue reactivity assessment (CR); format: in vivo, human; settings: 50 mg BID
Description: The present study also assessed the reactivity of participants to alcohol cues at each dose of medication such that participants served as their own controls. […] The CR assessments followed well-established procedures and participants received standardized instructions about the assessment as they became acclimated to the psychophysiological monitors.
CR assessment sessions began with a 3-minute relaxation period, in which participants were asked to sit quietly and do nothing. Participants then held and smelled a glass of water for 3 minutes as a standard procedure to control for the effects of simple exposure to any potable liquid, followed by a second 3-minute relaxation period. Next, each participant held and smelled a glass of their preferred alcoholic beverage for three minutes. During each trial, the participant was asked to sniff the beverage for 5 consecutive seconds upon hearing a tone sound. Thirteen tone sounds were administered during each 3-minute block of time. […]
Following each 3 minute exposure to alcohol, each participant rated his/her urge to drink alcohol using the 11-point Likert scale (e.g., “none at all” to “extremely strong urge”). Heart rate (beats per minute; BPM) and blood pressure (systolic, diastolic, and mean arterial pressure [MAP]) were monitored continuously using a Dynamap Adult Vital Signs Monitor and values were averaged over each 3-minute trial. […]

CC(C)C(=O)c1c(C(C)C)nn2ccccc12 [ibudilast, Ibudilast]
reduction of ethanol intake ([1]; 5-day Relapse Test phase): about 50%
ethanol drinking relative to controls ([1]; Relapse Test phase, 6 mg/Kg and 9 mg/Kg doses, p<0.05): significantly reducing ethanol drinking relative to controls
dose dependence of effect on ethanol intake (2-way mixed ANOVA) ([1]; Relapse Test phase): dose dependent reduction in ethanol intake
24-hour food intake ([1]; especially at the 9 mg/Kg dose, effect diminished over the 5-day test phase): transitory reductions
dose dependence of effect on ethanol intake (2-way mixed ANOVA) ([1]; maintenance test phase, 0, 3, 6, 9 mg/Kg): dose dependent reduction of ethanol intake
reduction of ethanol intake ([1]; maintenance test phase, 4 days, s.c. twice daily, vs vehicle): approximately 50%
time course of reduced ethanol intake (Dose x Day interaction) ([1]; p<0.001, data not shown): most robust on the first day
dose reductions during the course of the study ([2]; 50 mg BID): no dose reductions
drop-outs for adverse event-related reasons ([2]; 50 mg BID): No subjects dropped out
tolerability and safety ([2]; 50 mg BID oral (20 mg BID days 1-2), 6 days, humans with AUD): well tolerated and safe
heart rate or blood pressure in the context of alcohol consumption ([2]; 50 mg BID, IV alcohol, across the BrACs, p's>=0.35): did not affect
headache, reported adverse drug effect ([2]; 50 mg BID, vs 0 during placebo, p<0.05): 4 instances
basal, daily alcohol craving (AUQ) [3]: significantly decreased
cue-induced AUQ craving ([4]; day 6 alcohol cue-exposure): did not affect
positive mood during cue reactivity ([4]; p=0.07): increased positive mood
